Assays:
3T3-L1 pre-adipocytes = test: Inhibition of adipocyte differentiation and lipid accumulation, Oil Red O; format: cell-based; settings: Mus musculus, 192 h; 3T3-L1, compound 1 μM, MDI-induced differentiation for 8 days, Oil Red O eluted, absorbance 544 nm; read-out: lipid accumulation rate
Method: 3T3-L1 cells were seeded in a 6-well plate at a density of […] cells per well. The cells were grown to 100% confluency in Dulbecco's modified Eagle's medium (DMEM) supplemented with 10% bovine calf serum (BCS; GIBCO). Two days after reaching 100% confluency, differentiation was induced with or without treatment with the indoline compound at a concentration of 1 μM in DMEM containing 10% fetal bovine serum (FBS; GIBCO) and MDI (520 μM methylisobutylxanthine (IBMX; Sigma-Aldrich), 1 μM dexamethasone (Sigma-Aldrich), and 5 μM insulin (GIBCO)). On day 3, the medium was replaced with DMEM containing 10% FBS and 5 μM insulin with or without the indoline compound, and then with a fresh identical medium every 2 days. After differentiation for 8 days, the culture medium was removed, and the cells were washed with PBS and then fixed with 10% formaldehyde for 1 hour. After removing the 10% formaldehyde, the cells were washed thoroughly with distilled water. After that, 60% isopropanol was added and immediately then removed. After washing with distilled water, lipid droplets were stained with an Oil Red O dye solution for 20 minutes and then washed with distilled water. The cells were counterstained with Mayer's hematoxylin. Oil Red O images were visualized using a bright-field microscope (Nikon TE-2000U). To quantify the accumulated lipids, Oil Red O was eluted by adding isopropanol, and absorbance was measured spectrophotometrically at 544 nm using a multi-plate reader.
As A3051 (KY19382) and A3334, self-developed and synthesized materials were used. As BIO, or GSK 3 Inhibitor IX, also known as 6-bromoindirubin-3′-oxime, HY-10580 was purchased commercially.
In FIG. 2, the undifferentiated group (Un Diff) refers to undifferentiated adipocytes, or preadipocytes that had not been induced to differentiate, and the differentiated group (Diff) refers to fully differentiated adipocytes.

[1] = tested on: lipid droplets / PPARγ in liver tissue; test: Liver Oil Red O staining and PPARγ immunohistochemistry in MASH mice; format: in vivo, C57BL/6N mice; settings: 25 mg/kg/day orally for 4 weeks
Method: Five-week-old wild-type male C57BL/6N mice were purchased from Orient Bio Co., Ltd. They were allowed to acclimate to the laboratory environment for one week. Mice weighing 18-20 g on average were used in the experiment. To ensure ethical and scientific validity and efficient management of animal experiments, the experiment was conducted with the approval of the Institutional Review Board (IACUC-A-202205-1472-01) of Severance Hospital, Yonsei University College of Medicine.
The mice were divided into a normal group (NCD) and a high-fat diet group (HFD). The normal group (NCD) was fed a normal chow diet (NCD, Teklad Global 18% protein rodent diet), and the high-fat diet group (HFD) was fed a high-fat diet (HFD, D12492) in which fat accounted for 60% of the total calories, for 8 weeks.
Mice induced with metabolic dysfunction-associated steatohepatitis (MASH) (hereinafter, referred to as MASH or MASH group) were prepared by administering CCl4 intraperitoneally twice a week for 4 weeks after feeding the high-fat diet (HFD) for 8 weeks. The […] was diluted with corn oil at a ratio of 1:19 and injected at a dosage of 2 mL/kg. The normal group (NOD) was administered the same volume of physiological saline.
The animals were divided into 7 groups, each with 10 animals.
It was investigated whether the accumulation of triglycerides in the liver is suppressed effectively. For this purpose, liver tissue was extracted from each group, and it was prepared into 10-μm thick cryosections, which were then stained with Oil Red O. Details are as follows. After preparing the 7 groups, the animals were euthanized using carbon dioxide and the liver tissues were extracted. A certain area of the extracted liver tissue was cryosectioned to 10 μm thickness, fixed in 4% neutral paraformaldehyde for 20 minutes at room temperature, and washed with 70% isopropanol (Duksan Pure Chemicals). After staining with the Oil Red O (Sigma-Aldrich) reagent for 20 minutes, the sections were washed thoroughly three times with distilled water. The tissue was counterstained with Mayer's hematoxylin. Then, Oil Red O staining images were visualized using a bright-field microscope (Nikon TE-2000U).
After preparing the 7 groups, the animals were sacrificed using carbon dioxide and the liver tissues were extracted. The extracted tissues were fixed in 4% neutral paraformaldehyde and embedded in paraffin to prepare sections. The paraffin sections were cut to 4-μm thickness, deparaffinized, and then rehydrated. For antigen exposure, slides were autoclaved in a 10 mM sodium citrate buffer (pH 6.0). To block endogenous peroxidase activity prior to peroxidase IHC analysis, the tissues were incubated with 0.3% H2O2 for 10 minutes. The incubated sections were treated with phosphate-buffered saline (PBS) containing 10% NGS and 0.3% Tween-20 for 1 hour at room temperature, treated with primary antibodies of anti-PPARγ (1:50; Abcam), and incubated overnight at 4° C.
The sections treated with the primary antibodies were washed with PBS and incubated with biotinylated anti-mouse (1:400; Dako) or anti-rabbit (1:400; Dako) secondary antibodies for 1 hour at room temperature. The sections incubated with the secondary antibodies were stained with 3,3′-diaminobenzidine (DAB; Dako) for 3-7 minutes and then counterstained with Mayer's haematoxylin. All incubations were performed in a humid chamber. After the staining, images were taken and analyzed using a bright-field microscope (Nikon TE-2000U).

SMILES: N#Cc1ccc2c(c1)/C(=C1/Nc3ccccc3C1=O)C(=O)N2 [5-cyanoindirubin]
- activity at 1 µM (3T3-L1 pre-adipocytes): 79%
- lipid droplet formation and lipid infiltration in liver, Oil Red O staining [1]: no significant difference was observed
